Test results published in patent publication US20070128217A1 (priority 2003, published 2007).

How the values were obtained:
[1] = test system: antibodies in sera from SARS patients (sera 1a, 1b, 2, 6, 37, 62, London, SARS-yellow, SARS-green); format: binding, human; design: Binding of serum 6 to linear peptides of protein X1 of SARS-CoV Urbani / Binding of serum 37 to linear peptides of protein X1 of SARS-CoV Urbani / Binding of serum 6 to looped/cyclic peptide (PEPSCAN-ELISA) / Binding of serum 37 to looped/cyclic peptide (PEPSCAN-ELISA) / Binding of serum 37 to looped/cyclic peptides of protein X1 of SARS-CoV Urbani / Binding of serum 6 to linear peptides of protein X2 / Binding of serum 37 to linear peptides of protein X2 / Binding of serum 37 to looped/cyclic peptides of protein X2 of SARS-CoV Urbani / Binding of serum 6 to linear peptides of protein M of SARS-CoV Urbani / Binding of serum 37 to linear peptides of protein M of SARS-CoV Urbani / Binding of serum 6 to looped/cyclic peptides of protein M of SARS-CoV Urbani / Binding of serum 37 to looped/cyclic peptides of protein M of SARS-CoV Urbani / Binding of serum 6 to linear peptides of protein X3 of SARS-CoV Urbani / Binding of serum 37 to linear peptides of protein X3 of SARS-CoV Urbani / Binding of serum 37 to looped/cyclic peptides of protein X3 of SARS-CoV Urbani / Binding of serum 6 to linear peptides of protein X4 of SARS-CoV Urbani / Binding of serum 37 to linear peptides of protein X4 of SARS-CoV Urbani / Binding of serum 37 to looped/cyclic peptides of protein X4 of SARS-CoV Urbani / Binding of serum 6 to linear peptides of protein X5 of SARS-CoV Urbani / Binding of serum 37 to linear peptides of protein X5 of SARS-CoV Urbani / Binding of serum 37 to looped/cyclic peptides of protein X5 of SARS-CoV Urbani / Binding of serum 6 to linear peptides of protein N of SARS-CoV Urbani / Binding of serum 37 to linear peptides of protein N of SARS-CoV Urbani / Binding of serum 6 to linear peptide (PEPSCAN-ELISA) / Binding of serum 1a to looped/cyclic peptides of protein N of SARS-CoV Urbani / Binding of serum 1b to looped/cyclic peptides of protein N of SARS-CoV Urbani / Binding of serum 2 to looped/cyclic peptides of protein N of SARS-CoV Urbani / Binding of serum 6 to looped/cyclic peptides of protein N of SARS-CoV Urbani / Binding of serum 37 to looped/cyclic peptides of protein N of SARS-CoV Urbani / Binding of serum 62 to looped/cyclic peptides of protein N of SARS-CoV Urbani / Binding of serum London to looped/cyclic peptides of protein N of SARS-CoV Urbani / Binding of serum SARS-green to looped/cyclic peptides of protein N of SARS-CoV Urbani: unit not given here
[2] = test system: control sera (pooled serum of ten healthy LUMC hospital workers; commercial negative donor pooled serum from the Dutch bloodbank); format: binding, human; design: Binding of Control serum LUMC to linear peptides / Binding of Control serum Blood-bank to linear peptides / Binding of Control serum LUMC to looped peptides / Binding of Control Serum Blood-Bank to Looped peptides / Binding of Control serum LUMC to linear peptides of the protein M of SARS-CoV Urbani / Binding of Control serum Blood-bank to linear peptides of the protein M of SARS-CoV Urbani / Binding of Control serum LUMC to looped peptides of the protein M of SARS-CoV Urbani / Binding of Control Serum Blood-Bank to Looped peptides of the protein M of SARS-CoV Urbani: unit not given here
[3] = test system: rabbit serum obtained by immunizing a rabbit with the SARS-CoV strain Frankfurt 1; format: binding; design: Binding of a rabbit serum to linear peptides / Binding of a rabbit serum to looped peptides / Rabbit serum linear peptides / Rabbit serum looped peptides / Binding of a rabbit serum to linear peptides of protein N of SARS-CoV Urbani (Rabbit serum linear peptides) / Binding of a rabbit serum to looped/cyclic peptides of protein N of SARS-CoV Urbani (Rabbit serum looped peptides): unit not given here

YFTEVYYQLESTQIT
Binding of serum 1a to linear peptides of protein X1 of SARS-CoV Urbani [1]: 0.7
Binding of serum 1a to looped/cyclic peptides of protein X1 of SARS-CoV Urbani [1]: 0.5
Binding of serum 1b to linear peptides of protein X1 of SARS-CoV Urbani [1]: 0.6
Binding of serum 1b to looped/cyclic peptides of protein X1 of SARS-CoV Urbani [1]: 0.5
Binding of serum 2 to linear peptides of protein X1 of SARS-CoV Urbani [1]: 0.4
Binding of serum 2 to looped/cyclic peptides of protein X1 of SARS-CoV Urbani [1]: 0.3
Binding of serum 6 to linear peptides of protein X1 of SARS-CoV Urbani [1]: 0.4
Binding of serum 6 to looped/cyclic peptides of protein X1 of SARS-CoV Urbani [1]: 0.2
Binding of serum 37 to linear peptides of protein X1 of SARS-CoV Urbani [1]: 0.6
Binding of serum 37 to looped/cyclic peptides of protein X1 of SARS-CoV Urbani [1]: 0.4
Binding of serum 62 to linear peptides of protein X1 of SARS-CoV Urbani [1]: 0.6
Binding of serum 62 to looped/cyclic peptides of protein X1 of SARS-CoV Urbani [1]: 0.4
Binding of serum London to linear peptides of protein X1 of SARS-CoV Urbani [1]: 0.3
Binding of serum London to looped/cyclic peptides of protein X1 of SARS-CoV Urbani [1]: 0.2
Binding of serum SARS-green to linear peptides of protein X1 of SARS-CoV Urbani [1]: 0.3
Binding of serum SARS-green to looped/cyclic peptides of protein X1 of SARS-CoV Urbani [1]: 0.2
Binding of serum SARS-yellow to linear peptides of protein X1 of SARS-CoV Urbani [1]: 0.3
Binding of serum SARS-yellow to looped/cyclic peptides of protein X1 of SARS-CoV Urbani [1]: 0.3
Binding of Control Serum Blood-Bank to Looped peptides [2]: 0.4
Binding of Control serum Blood-bank to linear peptides [2]: 0.4
Binding of Control serum LUMC to linear peptides [2]: 0.4
Binding of Control serum LUMC to looped peptides [2]: 0.5
Binding of a rabbit serum to linear peptides [3]: 0.1
Binding of a rabbit serum to looped peptides [3]: 0.4

VILRIGTQVLKTMSL
Binding of serum 1a to linear peptides of protein X2 [1]: 0.6
Binding of serum 1a to looped/cyclic peptides of protein X2 of SARS-CoV Urbani [1]: 0.6
Binding of serum 1b to linear peptides of protein X2 [1]: 0.5
Binding of serum 1b to looped/cyclic peptides of protein X2 of SARS-CoV Urbani [1]: 0.6
Binding of serum 2 to linear peptides of protein X2 [1]: 0.5
Binding of serum 2 to looped/cyclic peptides of protein X2 of SARS-CoV Urbani [1]: 0.4
Binding of serum 6 to linear peptides of protein X2 [1]: 0.5
Binding of serum 6 to looped/cyclic peptides of protein X2 of SARS-CoV Urbani [1]: 0.5
Binding of serum 37 to linear peptides of protein X2 [1]: 0.6
Binding of serum 37 to looped/cyclic peptides of protein X2 of SARS-CoV Urbani [1]: 0.5
Binding of serum 62 to linear peptides of protein X2 [1]: 0.6
Binding of serum 62 to looped/cyclic peptides of protein X2 of SARS-CoV Urbani [1]: 0.7
Binding of serum London to linear peptides of protein X2 [1]: 0.4
Binding of serum London to looped/cyclic peptides of protein X2 of SARS-CoV Urbani [1]: 0.2
Binding of serum SARS-green to linear peptides of protein X2 [1]: 0.4
Binding of serum SARS-green to looped/cyclic peptides of protein X2 of SARS-CoV Urbani [1]: 0.3
Binding of serum SARS-yellow to linear peptides of protein X2 [1]: 0.4
Binding of serum SARS-yellow to looped/cyclic peptides of protein X2 of SARS-CoV Urbani [1]: 0.4
Binding of Control Serum Blood-Bank to Looped peptides [2]: 0.7
Binding of Control serum Blood-bank to linear peptides [2]: 0.8
Binding of Control serum LUMC to linear peptides [2]: 0.5
Binding of Control serum LUMC to looped peptides [2]: 0.7
Binding of a rabbit serum to linear peptides [3]: 0.3
Binding of a rabbit serum to looped peptides [3]: 0.5

TIVVTEGDGISTPKL
Binding of serum 1a to linear peptides of protein X1 of SARS-CoV Urbani [1]: 0.6
Binding of serum 1a to looped/cyclic peptides of protein X1 of SARS-CoV Urbani [1]: 0.7
Binding of serum 1b to linear peptides of protein X1 of SARS-CoV Urbani [1]: 0.5
Binding of serum 1b to looped/cyclic peptides of protein X1 of SARS-CoV Urbani [1]: 0.7
Binding of serum 2 to linear peptides of protein X1 of SARS-CoV Urbani [1]: 0.5
Binding of serum 2 to looped/cyclic peptides of protein X1 of SARS-CoV Urbani [1]: 0.5
Binding of serum 6 to linear peptides of protein X1 of SARS-CoV Urbani [1]: 0.6
Binding of serum 6 to looped/cyclic peptides of protein X1 of SARS-CoV Urbani [1]: 0.4
Binding of serum 37 to linear peptides of protein X1 of SARS-CoV Urbani [1]: 0.6
Binding of serum 37 to looped/cyclic peptides of protein X1 of SARS-CoV Urbani [1]: 0.7
Binding of serum 62 to linear peptides of protein X1 of SARS-CoV Urbani [1]: 0.5
Binding of serum 62 to looped/cyclic peptides of protein X1 of SARS-CoV Urbani [1]: 0.6
Binding of serum London to linear peptides of protein X1 of SARS-CoV Urbani [1]: 0.3
Binding of serum London to looped/cyclic peptides of protein X1 of SARS-CoV Urbani [1]: 0.2
Binding of serum SARS-green to linear peptides of protein X1 of SARS-CoV Urbani [1]: 0.3
Binding of serum SARS-green to looped/cyclic peptides of protein X1 of SARS-CoV Urbani [1]: 0.6
Binding of serum SARS-yellow to linear peptides of protein X1 of SARS-CoV Urbani [1]: 0.3
Binding of serum SARS-yellow to looped/cyclic peptides of protein X1 of SARS-CoV Urbani [1]: 0.5
Binding of Control Serum Blood-Bank to Looped peptides [2]: 0.6
Binding of Control serum Blood-bank to linear peptides [2]: 0.5
Binding of Control serum LUMC to linear peptides [2]: 0.5
Binding of Control serum LUMC to looped peptides [2]: 0.7
Binding of a rabbit serum to linear peptides [3]: 0.1
Binding of a rabbit serum to looped peptides [3]: 0.5

SRTLSYYKLGASQRV
Binding of serum 1a to linear peptides of protein M of SARS-CoV Urbani [1]: 0.8
Binding of serum 1a to looped/cyclic peptides of protein M of SARS-CoV Urbani [1]: 0.9
Binding of serum 1b to linear peptides of protein M of SARS-CoV Urbani [1]: 0.5
Binding of serum 1b to looped/cyclic peptides of protein M of SARS-CoV Urbani [1]: 0.3
Binding of serum 2 to linear peptides of protein M of SARS-CoV Urbani [1]: 0.8
Binding of serum 2 to looped/cyclic peptides of protein M of SARS-CoV Urbani [1]: 0.7
Binding of serum 6 to linear peptides of protein M of SARS-CoV Urbani [1]: 0.4
Binding of serum 6 to looped/cyclic peptides of protein M of SARS-CoV Urbani [1]: 0.9
Binding of serum 37 to linear peptides of protein M of SARS-CoV Urbani [1]: 0.8
Binding of serum 37 to looped/cyclic peptides of protein M of SARS-CoV Urbani [1]: 0.8
Binding of serum 62 to linear peptides of protein M of SARS-CoV Urbani [1]: 0.8
Binding of serum 62 to looped/cyclic peptides of protein M of SARS-CoV Urbani [1]: 0.7
Binding of serum London to linear peptides of protein M of SARS-CoV Urbani [1]: 0.3
Binding of serum London to looped/cyclic peptides of protein M of SARS-CoV Urbani [1]: 0.3
Binding of serum SARS-green to linear peptides of protein M of SARS-CoV Urbani [1]: 0.2
Binding of serum SARS-green to looped/cyclic peptides of protein M of SARS-CoV Urbani [1]: 0.4
Binding of serum SARS-yellow to linear peptides of protein M of SARS-CoV Urbani [1]: 0.1
Binding of serum SARS-yellow to looped/cyclic peptides of protein M of SARS-CoV Urbani [1]: 0.8
Binding of Control Serum Blood-Bank to Looped peptides of the protein M of SARS-CoV Urbani [2]: 0.6
Binding of Control serum Blood-bank to linear peptides of the protein M of SARS-CoV Urbani [2]: 0.9
Binding of Control serum LUMC to linear peptides of the protein M of SARS-CoV Urbani [2]: 0.5
Binding of Control serum LUMC to looped peptides of the protein M of SARS-CoV Urbani [2]: 0.8
Rabbit serum linear peptides [3]: 0.6
Rabbit serum looped peptides [3]: 0.6

AAGMEAQFLYLYALI
Binding of serum 1a to linear peptides of protein X1 of SARS-CoV Urbani [1]: 0.7
Binding of serum 1a to looped/cyclic peptide (PEPSCAN-ELISA) [1]: 0.6
Binding of serum 1b to linear peptides of protein X1 of SARS-CoV Urbani [1]: 0.6
Binding of serum 1b to looped/cyclic peptide (PEPSCAN-ELISA) [1]: 0.4
Binding of serum 2 to linear peptides of protein X1 of SARS-CoV Urbani [1]: 0.6
Binding of serum 2 to looped/cyclic peptide (PEPSCAN-ELISA) [1]: 0.5
Binding of serum 6 to linear peptides of protein X1 of SARS-CoV Urbani [1]: 0.5
Binding of serum 6 to looped/cyclic peptide (PEPSCAN-ELISA) [1]: 0.3
Binding of serum 37 to linear peptides of protein X1 of SARS-CoV Urbani [1]: 0.5
Binding of serum 37 to looped/cyclic peptide (PEPSCAN-ELISA) [1]: 0.6
Binding of serum 62 to linear peptides of protein X1 of SARS-CoV Urbani [1]: 0.5
Binding of serum 62 to looped/cyclic peptide (PEPSCAN-ELISA) [1]: 0.6
Binding of serum London to linear peptides of protein X1 of SARS-CoV Urbani [1]: 0.2
Binding of serum London to looped/cyclic peptide (PEPSCAN-ELISA) [1]: 0.2
Binding of serum SARS-green to linear peptides of protein X1 of SARS-CoV Urbani [1]: 0.2
Binding of serum SARS-green to looped/cyclic peptide (PEPSCAN-ELISA) [1]: 0.3
Binding of serum SARS-yellow to linear peptides of protein X1 of SARS-CoV Urbani [1]: 0.3
Binding of serum SARS-yellow to looped/cyclic peptide (PEPSCAN-ELISA) [1]: 0.4
Binding of Control Serum Blood-Bank to Looped peptides [2]: 0.5
Binding of Control serum Blood-bank to linear peptides [2]: 0.5
Binding of Control serum LUMC to linear peptides [2]: 0.9
Binding of Control serum LUMC to looped peptides [2]: 0.7
Binding of a rabbit serum to linear peptides [3]: 0.1
Binding of a rabbit serum to looped peptides [3]: 0.6
